In PMC13366236 (Acta Pharmaceutica Sinica. B, 2025):
Marks after values point to notes of the source that are not given here.

Columns and labels:
mTOR = mTOR (Homo sapiens, UniProt P42345); experiment: mTOR kinase inhibition, Lance Ultra assay; format: biochemical; settings: for IC50: mTOR, IC50, mean ± SD of triplicate measurements
MDA-MB-436 cells = experiment: Cell viability CCK-8 assay; format: cell-based; settings: Homo sapiens, MDA-MB-436, 48 h, read-out: Antiproliferative IC50 ± SD
MDA-MB-231 cells = experiment: Cell viability CCK-8 assay; format: cell-based, human; settings: Homo sapiens, MDA-MB-231, 48 h, read-out: Antiproliferative IC50 ± SD
HCT-116 cells = experiment: Cell viability CCK-8 assay; format: cell-based; settings: Homo sapiens, HCT-116, 48 h, read-out: Antiproliferative IC50 ± SD
MCF-7 cells = experiment: Cell viability CCK-8 assay; format: cell-based; settings: Homo sapiens, MCF7, 48 h, read-out: Antiproliferative IC50 ± SD
MDA-MB-231 xenograft = MDA-MB-231 xenograft tumor model; format: in vivo, female BALB/c nude mice; settings: 2.5 mg/kg, i.v., Q7D × 2, Day 15

Row | SMILES | IC50 (mTOR) [µM] | IC50 (MDA-MB-231 cells) [nM] | other results
1 | C[C@H](N)C(=O)Nc1ccccc1/N=c1\cc(-c2ccc3c(c2)OCCO3)oc2c([N+](=O)[O-])cccc12 [Compound 5q, (S,E)-2-amino-N-(2-((2-(2,3-dihydrobenzo[b][1,4]dioxin-6-yl)-8-nitro-4H-chromen-4-ylidene)amino)phenyl)propanamide] | > 10 | – | –
2 | C[C@H](N)C(=O)Nc1ccccc1/N=c1\cc(-c2ccc3c(c2)OCCO3)oc2c(N)cccc12 [Compound 5r, (S,E)-2-amino-N-(2-((8-amino-2-(2,3-dihydrobenzo[b][1,4]dioxin-6-yl)-4H-chromen-4-ylidene)amino)phenyl)propanamide] | > 10 | – | –
3 | COc1ccc2/c(=N/c3ccccc3NC(=O)[C@H](C)N)cc(-c3ccc4c(c3)OCCO4)oc2c1 [Compound 5s, (S,E)-2-amino-N-(2-((2-(2,3-dihydrobenzo[b][1,4]dioxin-6-yl)-7-methoxy-4H-chromen-4-ylidene)amino)phenyl)propanamide] | > 10 | – | –
4 | COc1ccc2/c(=N/c3ccccc3NC(=O)CN)cc(-c3ccc4c(c3)OCCO4)oc2c1 [Compound 5t, (E)-2-amino-N-(2-((2-(2,3-dihydrobenzo[b][1,4]dioxin-6-yl)-7-methoxy-4H-chromen-4-ylidene)amino)phenyl)acetamide] | > 10 | – | –
5 | C[C@H](N)C(=O)Nc1ccccc1/N=c1\cc(-c2ccc3c(c2)OCCO3)oc2cc(F)ccc12 [Compound 5x, (S,E)-2-amino-N-(2-((2-(2,3-dihydrobenzo[b][1,4]dioxin-6-yl)-7-fluoro-4H-chromen-4-ylidene)amino)phenyl)propanamide] | > 10 | – | –
6 | NCC(=O)Nc1ccccc1/N=c1\cc(-c2ccc3c(c2)OCCO3)oc2cc(F)ccc12 [Compound 5y, (E)-2-amino-N-(2-((2-(2,3-dihydrobenzo[b][1,4]dioxin-6-yl)-7-fluoro-4H-chromen-4-ylidene)amino)phenyl)acetamide] | > 10 | – | –
7 | COCCC(=O)Nc1ccccc1/N=c1\cc(-c2ccc3nc(N)oc3c2)oc2ccccc12 [Compound 12b, (E)-N-(2-((2-(2-aminobenzo[d]oxazol-6-yl)-4H-chromen-4-ylidene)amino)phenyl)-3-methoxypropanamide] | 3.37 ± 0.334 | – | –
8 | CNCCC(=O)Nc1ccccc1/N=c1\cc(-c2ccc3nc(N)oc3c2)oc2ccccc12 [Compound 12c, (E)-N-(2-((2-(2-aminobenzo[d]oxazol-6-yl)-4H-chromen-4-ylidene)amino)phenyl)-3-(methylamino)propanamide] | 0.473 ± 0.0424 | 104 ± 3.3 | IC50 (MDA-MB-436 cells): 566 ± 9.1 nM; IC50 (HCT-116 cells): 900.5 ± 5.5 nM; IC50 (MCF-7 cells): 1316 ± 6.4 nM
9 | CS(=O)(=O)NCCC(=O)Nc1ccccc1/N=c1\cc(-c2ccc3nc(N)oc3c2)oc2ccccc12 [Compound 12d, (E)-N-(2-((2-(2-aminobenzo[d]oxazol-6-yl)-4H-chromen-4-ylidene)amino)phenyl)-3-(methylsulfonamido)propanamide] | 3.39 ± 0.164 | – | –
10 | CN(C)CCC(=O)Nc1ccccc1/N=c1\cc(-c2ccc3nc(N)oc3c2)oc2ccccc12 [Compound 12e, (E)-N-(2-((2-(2-aminobenzo[d]oxazol-6-yl)-4H-chromen-4-ylidene)amino)phenyl)-3-(dimethylamino)propanamide] | 2.61 ± 0.201 | – | –
11 | CCN(CC)CCC(=O)Nc1ccccc1/N=c1\cc(-c2ccc3nc(N)oc3c2)oc2ccccc12 [Compound 12f, (E)-N-(2-((2-(2-aminobenzo[d]oxazol-6-yl)-4H-chromen-4-ylidene)amino)phenyl)-3-(diethylamino)propanamide] | > 10 | – | –
12 | Nc1nc2ccc(-c3c/c(=N\c4ccccc4NC(=O)CCN4CCCC4)c4ccccc4o3)cc2o1 [Compound 12g, (E)-N-(2-((2-(2-aminobenzo[d]oxazol-6-yl)-4H-chromen-4-ylidene)amino)phenyl)-3-(pyrrolidin-1-yl)propanamide] | > 10 | – | –
13 | Nc1nc2ccc(-c3c/c(=N\c4ccccc4NC(=O)CCN4CCOCC4)c4ccccc4o3)cc2o1 [Compound 12h, (E)-N-(2-((2-(2-aminobenzo[d]oxazol-6-yl)-4H-chromen-4-ylidene)amino)phenyl)-3-morpholinopropanamide] | > 10 | – | –
14 | Nc1nc2ccc(-c3c/c(=N\c4ccccc4NC(=O)C4CCNC4)c4ccccc4o3)cc2o1 (centres unmarked) [Compound 12i, (E)-N-(2-((2-(2-aminobenzo[d]oxazol-6-yl)-4H-chromen-4-ylidene)amino)phenyl)pyrrolidine-3-carboxamide] | 0.165 ± 0.0081 | 285 ± 425 | IC50 (HCT-116 cells): 313200 ± 5.7 nM; IC50 (MCF-7 cells): 1487 ± 2.8 nM
15 | N#Cc1ccc2oc(-c3ccc4nc(N)oc4c3)c/c(=N\c3ccccc3NC(=O)CCN)c2c1 [Compound 12l, (E)-3-amino-N-(2-((2-(2-aminobenzo[d]oxazol-6-yl)-6-cyano-4H-chromen-4-ylidene)amino)phenyl)propanamide] | 1.24 ± 0.0861 | – | –
16 | NCCC(=O)Nc1ccccc1/N=c1\cc(-c2ccc3nc(N)oc3c2)oc2ccc(O)cc12 [Compound 12n, (E)-3-amino-N-(2-((2-(2-aminobenzo[d]oxazol-6-yl)-6-hydroxy-4H-chromen-4-ylidene)amino)phenyl)propanamide] | 0.0263 ± 0.0002 | 1770 ± 473 | fold more potent than 12a (mTOR IC50) (mTOR; vs 12a): 1.72 fold; IC50 (HCT-116 cells): 1570 ± 132 nM; IC50 (MCF-7 cells): 547 ± 679 nM
17 | NCCC(=O)Nc1ccccc1/N=c1\cc(-c2ccc3nc(N)oc3c2)oc2cc(Br)ccc12 [Compound 12o, (E)-3-amino-N-(2-((2-(2-aminobenzo[d]oxazol-6-yl)-7-bromo-4H-chromen-4-ylidene)amino)phenyl)propanamide] | 9.34 ± 0.748 | – | –
18 | CCNc1nc2ccc(-c3c/c(=N\c4ccccc4NC(=O)CCN)c4ccccc4o3)cc2o1 [Compound 15, (E)-3-amino-N-(2-((2-(2-(ethylamino)benzo[d]oxazol-6-yl)-4H-chromen-4-ylidene)amino)phenyl)propanamide] | 2.66 ± 0.38 | – | –
19 | NCCC(=O)Nc1ccccc1/N=c1\cc(-c2ccc3oc(N)nc3c2)oc2ccccc12 [Compound 21, (E)-3-amino-N-(2-((2-(2-aminobenzo[d]oxazol-5-yl)-4H-chromen-4-ylidene)amino)phenyl)propanamide] | 0.696 ± 0.0582 | – | fold decrease in kinase inhibitory activity (mTOR) (mTOR; vs 12a): 15.4 fold
20 | COc1cccc2c1C(=O)c1c(O)c3c(c(O)c1C2=O)C[C@@](O)(C(=O)CO)C[C@@H]3O[C@H]1C[C@H](N)[C@H](O)[C@H](C)O1 [Doxorubicin, reference compound] | – | 75.6 | T/C (MDA-MB-231 xenograft): 31.82%; TGI (MDA-MB-231 xenograft): 68.18 ^d %; Tumor size (MDA-MB-231 xenograft; mean ± SEM): 115.17 ± 32.95 mm^3
21 | CO[C@H]1C[C@@H]2CC[C@@H](C)[C@@](O)(O2)C(=O)C(=O)N2CCCC[C@H]2C(=O)O[C@H]([C@H](C)C[C@@H]2CC[C@@H](OCCO)[C@H](OC)C2)CC(=O)[C@H](C)/C=C(\C)[C@@H](O)[C@@H](OC)C(=O)[C@H](C)C[C@H](C)/C=C/C=C/C=C/1C [Everolimus, reference compound] | – | 2280 ± 76.3 | –
22 | CC(C)n1nc(-c2ccc3oc(N)nc3c2)c2c(N)ncnc21 [MLN-0128, reference compound] | – | 179 ± 238 | –
23 | CC(=O)O[C@H]1C(=O)[C@@]2(C)[C@H]([C@H](OC(=O)c3ccccc3)[C@]3(O)C[C@H](OC(=O)[C@H](O)[C@@H](NC(=O)c4ccccc4)c4ccccc4)C(C)=C1C3(C)C)[C@]1(OC(C)=O)CO[C@@H]1C[C@@H]2O [Paclitaxel, reference compound] | – | 3862 ± 13.2 | –
